# Assays:
# Experiment in all cases: combination Emax (second highest fraction inhibited in the dose matrix, 72 h); higher = more inhibition; extreme values may be limits of the assay
# [1] = test system: HeLa (Cervical Carcinoma)
# Summary of the method: (§1)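 Bliss excess equals the observed combination effect minus the expected value EA + EB − EA·EB, where EA and EB are the effects of each agent alone. Combination Emax is the second-highest inhibition within the matrix. Inhibition was scaled from CellTiter-Glo 2.0 luminescence, with 0 set by vehicle wells and 1 by blank wells, after 72 hours of two-drug dosing of cells plated in 1536-well plates.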
# [2] = test system: SW1573 (Lung Adenocarcinoma)
# Summary of the method: as §1
# A673 (Ewing's Sarcoma) = test system: A673 (Ewing's Sarcoma)
# Summary of the method: as §1
# [3] = test system: HH (T-Cell Non-Hodgkin's Lymphoma)
# Summary of the method: as §1
# [4] = test system: NCI-H209 (Small Cell Lung Carcinoma)
# Summary of the method: as §1
# [5] = test system: WSU-NHL (B-Cell Non-Hodgkin's Lymphoma)
# Summary of the method: as §1
# BPH-1 (Non-Cancerous) = test system: BPH-1 (Non-Cancerous)
# Summary of the method: as §1
# [6] = test system: Hs-746T (Gastric Carcinoma)
# Summary of the method: as §1
# [7] = test system: CAL-33 (Oral Cavity Carcinoma)
# Summary of the method: as §1
# [8] = test system: YAPC (Pancreatic Carcinoma)
# Summary of the method: as §1
# [9] = test system: SNU-449 (Hepatocellular Carcinoma)
# Summary of the method: as §1
# EW-11 (Ewing's Sarcoma) = test system: EW-11 (Ewing's Sarcoma)
# Summary of the method: as §1
# [10] = test system: TGBC1TKB (Biliary Tract Carcinoma)
# Summary of the method: as §1
# [11] = test system: FTC-133 (Thyroid Gland Carcinoma)
# Summary of the method: as §1
# [12] = test system: NCI-H524 (Small Cell Lung Carcinoma)
# Summary of the method: as §1
# [13] = test system: NUGC-4 (Gastric Carcinoma)
# Summary of the method: as §1
# [14] = test system: LCLC-97TM1 (Non-Small Cell Lung Carcinoma)
# Summary of the method: as §1
# [15] = test system: NCI-H1568 (Lung Adenocarcinoma)
# Summary of the method: as §1
# [16] = test system: SAS (Oral Cavity Carcinoma)
# Summary of the method: as §1
# [17] = test system: ALL-PO (B-Lymphoblastic Leukemia)
# Summary of the method: as §1
SMILES,combination Emax [1],combination Emax [2],combination Emax (A673 (Ewing's Sarcoma)),combination Emax [3],combination Emax [4],combination Emax [5],combination Emax (BPH-1 (Non-Cancerous)),combination Emax [6],combination Emax [7],combination Emax [8],combination Emax [9],combination Emax (EW-11 (Ewing's Sarcoma)),combination Emax [10],combination Emax [11],combination Emax [12],combination Emax [13],combination Emax [14],combination Emax [15],combination Emax [16],combination Emax [17]
"Cn1cnc2c(F)c(Nc3ccc(Br)cc3Cl)c(C(=O)NOCCO)cc21 [Selumetinib] + CC(C)n1c(=O)n(C)c2cnc3cc(F)c(-c4ccc(OCCCN5CCCCC5)nc4)cc3c21 [AZD1390] (first compound max 10 µM, 7x7, partner max 0.3 µM)",0.0672,0,0.185,0.198,0.0904,0.205,0.487,0.411,0.755,0.193,0.16,0.103,0.152,0.166,0.0936,0.481,0.528,0.142,0.408,0.301
"Cn1cnc2c(F)c(Nc3ccc(Br)cc3Cl)c(C(=O)NOCCO)cc21 [Selumetinib] + CCN(CCO)CCCOc1ccc2c(Nc3cc(CC(=O)Nc4cccc(F)c4)[nH]n3)ncnc2c1 [AZD2811] (first compound max 10 µM, 7x7, partner max 1 µM)",0.171,0.251,0.658,0.173,0.431,0.642,0.624,0.478,0.653,0.212,0.221,0.199,0.211,0.415,0.955,0.472,0.647,0.207,0.471,1
"Cn1cnc2c(F)c(Nc3ccc(Br)cc3Cl)c(C(=O)NOCCO)cc21 [Selumetinib] + C[C@@H]1COCCN1C2=NC(=NC(=C2)C3(CC3)[S@](=N)(=O)C)C4=C5C=CNC5=NC=C4 [AZD6738] (first compound max 10 µM, 7x7, partner max 10 µM)",0.486,0.284,0.648,0.175,0.878,0.817,0.503,0.579,0.826,0.22,0.111,0.592,0.347,0.724,0.681,0.607,0.756,0.574,0.806,0.96
"CC(=O)Nc1cccc(-n2c(=O)n(C3CC3)c(=O)c3c(Nc4ccc(I)cc4F)n(C)c(=O)c(C)c32)c1 [Trametinib] + Cc1nc(-c2cn3c(n2)-c2ccc(-c4cnn(C(C)(C)C(N)=O)c4)cc2OCC3)n(C(C)C)n1 [Taselisib] (first compound max 1 µM, 7x7, partner max 10 µM)",0.42,0.407,0.722,0.524,0.218,0.76,0.94,0.606,0.989,0.733,0.559,0.676,0.933,0.338,0.829,0.554,1,0.763,0.882,0.795
"CC1(C)CCC(CN2CCN(c3ccc(C(=O)NS(=O)(=O)c4ccc(NCC5CCOCC5)c([N+](=O)[O-])c4)c(Oc4cnc5[nH]ccc5c4)c3)CC2)=C(c2ccc(Cl)cc2)C1 [Venetoclax] + C1CN(CCC1(C(=O)N[C@@H](CCO)C2=CC=C(C=C2)Cl)N)C3=NC=NC4=C3C=CN4 [Capivasertib] (first compound max 1 µM, 7x7, partner max 3 µM)",0.22,0.257,0.588,0.44,0.456,0.977,0.382,0.275,0.276,0.124,0.222,0.711,0.309,0.358,0.166,0.121,0.298,0.133,0.286,0.669
"CC1(C)CCC(CN2CCN(c3ccc(C(=O)NS(=O)(=O)c4ccc(NCC5CCOCC5)c([N+](=O)[O-])c4)c(Oc4cnc5[nH]ccc5c4)c3)CC2)=C(c2ccc(Cl)cc2)C1 [Venetoclax] + C=CCn1c(=O)c2cnc(Nc3ccc(N4CCN(C)CC4)cc3)nc2n1-c1cccc(C(C)(C)O)n1 [AZD1775] (first compound max 1 µM, partner max 1 µM)",0.573,0.407,0.862,0.766,0.978,0.985,0.377,0.481,0.761,0.307,0.239,0.715,0.35,0.86,0.895,0.312,0.891,0.479,0.761,1
"CC1(C)CCC(CN2CCN(c3ccc(C(=O)NS(=O)(=O)c4ccc(NCC5CCOCC5)c([N+](=O)[O-])c4)c(Oc4cnc5[nH]ccc5c4)c3)CC2)=C(c2ccc(Cl)cc2)C1 [Venetoclax] + CCN(CCO)CCCOc1ccc2c(Nc3cc(CC(=O)Nc4cccc(F)c4)[nH]n3)ncnc2c1 [AZD2811] (first compound max 1 µM, 7x7, partner max 1 µM)",0.279,0.286,0.861,0.18,0.974,0.782,0.416,0.161,0.594,0.157,0.239,0.517,0.208,0.495,0.985,0.166,0.289,0.209,0.204,1
"CC1(C)CCC(CN2CCN(c3ccc(C(=O)NS(=O)(=O)c4ccc(NCC5CCOCC5)c([N+](=O)[O-])c4)c(Oc4cnc5[nH]ccc5c4)c3)CC2)=C(c2ccc(Cl)cc2)C1 [Venetoclax] + CN(C)CCCOc1ccc(-c2ccc3ncc4c(c3c2)n(C2CCOCC2)c(=O)n4C)cn1 [AZD0156] (first compound max 1 µM, 7x7, partner max 1 µM)",0.188,0.201,0.835,0.18,0.528,0.811,0.254,0.226,0.178,0.175,0.243,0.69,0.244,0.167,0.321,0.166,0.105,0.319,0.256,0.516
"CC1(C)CCC(CN2CCN(c3ccc(C(=O)NS(=O)(=O)c4ccc(NCC5CCOCC5)c([N+](=O)[O-])c4)c(Oc4cnc5[nH]ccc5c4)c3)CC2)=C(c2ccc(Cl)cc2)C1 [Venetoclax] + COc1cc(Nc2ncc3c(n2)-c2ccc(Cl)cc2C(c2c(F)cccc2OC)=NC3)ccc1C(=O)O [Alisertib] (first compound max 1 µM, 7x7, partner max 10 µM)",0.702,0.168,0.835,0.222,0.891,0.985,0.745,0.65,0.714,0.142,0.313,0.649,0.403,0.416,0.991,0.166,0.497,0.259,0.39,1
"CC1(C)CCC(CN2CCN(c3ccc(C(=O)NS(=O)(=O)c4ccc(NCC5CCOCC5)c([N+](=O)[O-])c4)c(Oc4cnc5[nH]ccc5c4)c3)CC2)=C(c2ccc(Cl)cc2)C1 [Venetoclax] + C[C@@H]1COCCN1C2=NC(=NC(=C2)C3(CC3)[S@](=N)(=O)C)C4=C5C=CNC5=NC=C4 [AZD6738] (first compound max 1 µM, 7x7, partner max 10 µM)",0.563,0.351,0.89,0.352,0.981,0.983,0.332,0.508,0.862,0.317,0.26,0.781,0.46,0.779,0.748,0.534,0.85,0.553,0.834,1
"CC1(C)CCC(CN2CCN(c3ccc(C(=O)NS(=O)(=O)c4ccc(NCC5CCOCC5)c([N+](=O)[O-])c4)c(Oc4cnc5[nH]ccc5c4)c3)CC2)=C(c2ccc(Cl)cc2)C1 [Venetoclax] + C[C@@H](Nc1cc(F)cc(F)c1)c1cc(C(=O)N(C)C)cc2c(=O)cc(N3CCOCC3)oc12 [AZD8186] (first compound max 1 µM, 7x7, partner max 3 µM)",0.124,0.136,0.558,0.434,0.515,1,0.31,0.269,0.149,0.0625,0.172,0.699,0.526,0.182,0.535,0.287,0.129,0.0798,0.282,0.703
"CC1(C)CCC(CN2CCN(c3ccc(C(=O)NS(=O)(=O)c4ccc(NCC5CCOCC5)c([N+](=O)[O-])c4)c(Oc4cnc5[nH]ccc5c4)c3)CC2)=C(c2ccc(Cl)cc2)C1 [Venetoclax] + Cc1cc2ncnn2cc1Nc1ncc2c(n1)n(C1CCOCC1)c(=O)n2C [AZD7648] (first compound max 1 µM, 7x7, partner max 10 µM)",0.199,0.144,0.597,0.273,0.642,0.869,0.232,0.226,0.329,0.2,0.229,0.558,0.297,0.182,0.308,0.232,0.2,0.135,0.256,0.613

# Source: the supplement of paper PMC11061612
